In one experiment the target is T1, PPO2 R128A ΔG210 (Amaranthus tuberculatus, UniProt Q0NZW9, DEL210/R128A).
T1 sequence (Q0NZW9 with tags, fused parts or gaps R128A/DEL210): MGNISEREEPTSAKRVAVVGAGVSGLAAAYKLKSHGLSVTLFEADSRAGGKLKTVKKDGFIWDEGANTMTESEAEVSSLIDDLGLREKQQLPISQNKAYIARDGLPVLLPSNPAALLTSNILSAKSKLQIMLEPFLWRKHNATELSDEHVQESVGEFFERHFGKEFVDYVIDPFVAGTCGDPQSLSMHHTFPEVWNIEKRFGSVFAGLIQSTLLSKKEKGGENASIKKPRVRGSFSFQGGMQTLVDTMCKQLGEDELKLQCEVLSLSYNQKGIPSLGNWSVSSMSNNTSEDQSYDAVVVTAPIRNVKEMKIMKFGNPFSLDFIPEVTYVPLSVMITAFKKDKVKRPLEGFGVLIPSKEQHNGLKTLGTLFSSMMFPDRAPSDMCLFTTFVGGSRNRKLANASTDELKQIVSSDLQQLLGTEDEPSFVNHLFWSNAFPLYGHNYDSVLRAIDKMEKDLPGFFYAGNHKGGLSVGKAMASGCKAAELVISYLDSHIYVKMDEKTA
As to the kind of experiment: biochemical. The format is biochemical.

A further experiment has as its target T2, PPO2 R128H ΔG210 (Amaranthus tuberculatus, UniProt Q0NZW9, DEL210/R128H).
T2 sequence (Q0NZW9 with tags, fused parts or gaps R128H/DEL210): T1 sequence (Q0NZW9 with tags, fused parts or gaps R128A/DEL210) with A98H
As to the kind of experiment: biochemical. The format is biochemical.

In another experiment the target is T3, PPO2 R128M ΔG210 (Amaranthus tuberculatus, UniProt Q0NZW9, DEL210-210/R128M).
T3 sequence (Q0NZW9 with tags, fused parts or gaps R128M/DEL210-210): T1 sequence (Q0NZW9 with tags, fused parts or gaps R128A/DEL210) with A98M
Briefly: biochemical. The class given is biochemical.

For a further experiment, the target named is T4, PPO2 R128N ΔG210 (Amaranthus tuberculatus, UniProt Q0NZW9, DEL210-210/R128N).
T4 sequence (Q0NZW9 with tags, fused parts or gaps R128N/DEL210-210): T1 sequence (Q0NZW9 with tags, fused parts or gaps R128A/DEL210) with A98N
As to the kind of experiment: biochemical. The class given is biochemical.

For experiment [1], the target named is T5, PPO2 R128T ΔG210 in Escherichia coli hemG (Amaranthus tuberculatus, UniProt Q0NZW9, DEL210-210/R128T, cells depend on it).
T5 sequence (Q0NZW9 with tags, fused parts or gaps R128T/DEL210-210): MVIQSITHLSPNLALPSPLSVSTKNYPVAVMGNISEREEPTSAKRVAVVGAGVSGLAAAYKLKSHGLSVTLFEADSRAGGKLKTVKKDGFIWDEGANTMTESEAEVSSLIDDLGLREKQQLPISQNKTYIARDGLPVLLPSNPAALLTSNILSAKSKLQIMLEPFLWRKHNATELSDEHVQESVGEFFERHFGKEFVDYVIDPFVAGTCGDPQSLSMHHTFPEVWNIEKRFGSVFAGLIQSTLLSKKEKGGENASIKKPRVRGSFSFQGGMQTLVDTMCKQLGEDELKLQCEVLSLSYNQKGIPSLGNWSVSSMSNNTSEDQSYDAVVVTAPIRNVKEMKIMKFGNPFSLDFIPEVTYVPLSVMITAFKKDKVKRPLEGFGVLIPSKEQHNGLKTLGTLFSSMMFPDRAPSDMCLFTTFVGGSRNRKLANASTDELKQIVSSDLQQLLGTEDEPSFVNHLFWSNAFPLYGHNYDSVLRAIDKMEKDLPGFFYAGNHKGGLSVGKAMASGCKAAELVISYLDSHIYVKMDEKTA
The class given is cell-based. The settings on record: read-out: IC50 (E. coli hemG growth).

Residue numbers refer to the chain shown, from its start. pIC50: −log10 of the molar value.

Here are results for 4 compounds from publication PMC10092844, “Inhibition profile of trifludimoxazin towards PPO2 target site mutations” (Pest Management Science, 2022).

In general, pIC50 refers to the IC50 on a negative log10 scale, so that one unit is a factor of ten. With `CS(=O)(=O)NC(=O)c1cc(Oc2ccc(C(F)(F)F)cc2Cl)ccc1[N+](=O)[O-]` [Fomesafen, fomesafen], the pIC50 against PPO2 R128A ΔG210, against PPO2 R128H ΔG210, at PPO2 R128M ΔG210 and against PPO2 R128N ΔG210 was less than 5.00 in each case.

As for `CC(C)N(C)S(=O)(=O)NC(=O)c1cc(-n2c(=O)cc(C(F)(F)F)n(C)c2=O)c(F)cc1Cl` [Saflufenacil, saflufenacil], the pIC50 (on PPO2 R128A ΔG210; on PPO2 R128H ΔG210; against PPO2 R128M ΔG210; on PPO2 R128N ΔG210; in experiment [1]) was less than 5.00 in each case.

As to `C#CCN1C(=O)C(F)(F)Oc2cc(F)c(-n3c(=O)n(C)c(=S)n(C)c3=O)cc21` [Trifludimoxazin, trifludimoxazin], the negative-log IC50 (pIC50) against PPO2 R128A ΔG210 is 7.48; on PPO2 R128H ΔG210 it was 7.52; at PPO2 R128M ΔG210, 6.74; at PPO2 R128N ΔG210 it was 6.76; in experiment [1] it was 7.17. For the same compound, the Resistance factor is reported as 135 on PPO2 R128A ΔG210, 123 at PPO2 R128H ΔG210, 743 on PPO2 R128M ΔG210 and 714 at PPO2 R128N ΔG210.

`CCOC(=O)C(C)OC(=O)c1cc(Oc2ccc(C(F)(F)F)cc2Cl)ccc1[N+](=O)[O-]` (stereo not shown) [Lactofen, lactofen]: the pIC50 against PPO2 R128H ΔG210 is 5.80; at PPO2 R128M ΔG210, less than 5.00; at PPO2 R128N ΔG210 it was less than 5.00; in experiment [1] it was less than 5.00.
